What was measured:
adenosine A1 receptor = biological target: T1, adenosine A1 receptor (Oryctolagus cuniculus, UniProt P34970); assay: Adenosine A1 receptor binding ([3H]DPCPX) in airway smooth muscle membranes of treated rabbits; settings: for A1 receptor Bmax: [3H]DPCPX
T1 construct: Airway smooth muscle tissue was dissected from each rabbit and a membrane fraction prepared; from tissue; host or cells: rabbit airway smooth muscle, crude plasma membranes
T1 sequence (P34970 1-328): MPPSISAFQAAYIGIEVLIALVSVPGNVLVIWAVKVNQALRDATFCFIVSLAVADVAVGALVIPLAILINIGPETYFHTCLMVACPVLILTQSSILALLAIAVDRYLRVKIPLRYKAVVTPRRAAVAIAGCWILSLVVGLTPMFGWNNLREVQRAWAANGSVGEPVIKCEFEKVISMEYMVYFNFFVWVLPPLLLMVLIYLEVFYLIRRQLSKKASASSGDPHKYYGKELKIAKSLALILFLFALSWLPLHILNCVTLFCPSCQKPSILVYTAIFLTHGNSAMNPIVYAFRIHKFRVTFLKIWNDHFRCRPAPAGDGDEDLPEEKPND
Source text: At the conclusion of the cross-over experiment of Example 3 above, airway smooth muscle from all rabbits was quantitatively analyzed for adenosine A1 receptor number. As a control for the specificity of the anti-sense oligonucleotide, adenosine A2 receptors, which should not have been affected, were also quantified. Airway smooth muscle tissue was dissected from each rabbit and a membrane fraction prepared according to the method of Kleinstein et al. (Kleinstein, J. and Glossrnann, H., Naunyn-Schrniedeberg's Arch Pharmacol. 305: 191-200 (1978)), the relevant portion of which is hereby incorporated in its entirety by reference, with slight modifications. Crude plasma membrane preparations were stored at −70 EC until the time of assay. Protein content was determined by the method of Bradford (M. Bradford, Anal. Biochem. 72, 240-254 (1976), the relevant portion of which is hereby incorporated in its entirety by reference). Frozen plasma membranes were thawed at room temperature and were incubated with 0.2 U/ml adenosine deaminase for 30 minutes at 37 EC to remove endogenous adenosine. The binding of [^3H] DPCPX (A1 receptor-specific) or [^3H] CGS-21680 ([…]) was measured as previously described by Ali et al. (Ali, S. et al., J. Pharmacol. Exp. Ther. 268, Ara. J. Physiol 266, L271-277 (1994), the relevant portion of which is hereby incorporated in its entirety by reference). […] There was no change in adenosine A2 receptor number, as assayed by specific binding of the A2 receptor-specific agonist 2-[p-(2-carboxyethyl)-phenethylamino]-5′-(N-ethylcarboxamido) adenosine (CGS-21680). This is illustrated in Table 6 below.
A membrane fraction was prepared according to the method of Ali et al. (Ali, S., et al., Am. J. Resp. Crit Care Med. 149: 908 (1994), the relevant section relating to the preparation of the membrane fraction is incorporated in its entirety hereby by reference). The protein content was determined by the method of Bradford and plasma membranes were incubated with 0.2 U/ml adenosine deaminase for 30 minutes at 37 EC to remove endogenous adenosine. See, Bradford, M. M. Anal. Biochem. 72, 240-254 (1976), the relevant portion of which is hereby incorporated in its entirety by reference. The binding of [^3H]DPCPX, [^3H]NPC17731, or [^3H]CGS-21680 was measured as described by Jarvis et al. See, Jarvis, M. F., et al., Pharmacol. Exptl. Ther. 251, 888-893 (1989), the relevant portion of which is fully incorporated herein by reference.

adenosine A2 receptors = assay: Adenosine A2 receptor binding ([3H]CGS-21680) in airway smooth muscle membranes of treated rabbits; parameters: species or system rabbit; settings: airway smooth muscle membranes after cross-over experiment; mean (n = 8) ± SEM
Source text: At the conclusion of the cross-over experiment of Example 3 above, airway smooth muscle from all rabbits was quantitatively analyzed for adenosine A1 receptor number. As a control for the specificity of the anti-sense oligonucleotide, adenosine A2 receptors, which should not have been affected, were also quantified. Airway smooth muscle tissue was dissected from each rabbit and a membrane fraction prepared according to the method of Kleinstein et al. (Kleinstein, J. and Glossrnann, H., Naunyn-Schrniedeberg's Arch Pharmacol. 305: 191-200 (1978)), the relevant portion of which is hereby incorporated in its entirety by reference, with slight modifications. Crude plasma membrane preparations were stored at −70 EC until the time of assay. Protein content was determined by the method of Bradford (M. Bradford, Anal. Biochem. 72, 240-254 (1976), the relevant portion of which is hereby incorporated in its entirety by reference). Frozen plasma membranes were thawed at room temperature and were incubated with 0.2 U/ml adenosine deaminase for 30 minutes at 37 EC to remove endogenous adenosine. The binding of [^3H] […] CGS-21680 ([…]) was measured as previously described by Ali et al. (Ali, S. et al., J. Pharmacol. Exp. Ther. 268, Ara. J. Physiol 266, L271-277 (1994), the relevant portion of which is hereby incorporated in its entirety by reference). […]

## 5′-GTAGCAGGCGGGGATGGGGGC-3′ [HAdA1MM1, reference compound]
Adenosine A1 receptor; Kd of [3H]DPCPX in membranes of rabbits treated with 2 mg oligo
  Kd: 370 ± 33 pM
Adenosine A1 receptor; Kd of [3H]DPCPX in membranes of rabbits treated with 20 mg oligo
  Kd: 340 ± 27 pM
Adenosine A1 receptor; rabbits treated with 2 mg oligo
  A1 receptor Bmax: 51.8 ± 3.88 fmol
Adenosine A1 receptor; rabbits treated with 20 mg oligo
  A1 receptor Bmax: 52.0 ± 3.64 fmol
Adenosine A1 receptor; airway smooth muscle membranes after cross-over experiment, mean (n = 8) ± SEM
  A1-Specific Binding: 1105 ± 48
Adenosine A2 receptors
  A2-Specific Binding: 302 ± 22
